Where two headings read alike, the source gives them in different places.
Molecular target: T1, HDAC8 (Homo sapiens, UniProt Q9BY41)
T1 construct: purchased Enzo Life Sciences (Farmingdale, N.Y.) BMIL-SE145-0100
T1 sequence (Q9BY41 1-377): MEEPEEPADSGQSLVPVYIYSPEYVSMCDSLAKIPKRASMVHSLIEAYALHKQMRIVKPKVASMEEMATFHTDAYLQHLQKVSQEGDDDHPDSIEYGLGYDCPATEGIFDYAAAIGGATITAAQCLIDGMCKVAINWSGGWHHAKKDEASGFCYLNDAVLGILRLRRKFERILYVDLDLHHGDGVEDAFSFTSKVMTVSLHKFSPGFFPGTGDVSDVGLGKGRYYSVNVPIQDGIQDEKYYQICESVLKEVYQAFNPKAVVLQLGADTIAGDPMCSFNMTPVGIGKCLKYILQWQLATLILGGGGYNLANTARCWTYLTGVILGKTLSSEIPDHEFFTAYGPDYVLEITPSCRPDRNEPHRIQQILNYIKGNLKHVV
Test: HDAC8 inhibition, modified Fluor-de-Lys assay
Format: biochemical
Details: 3 h pre-incubation, 200 μM substrate BML-KI178, read-out: HDAC-8 IC50
Text: Human HDAC Enzyme Inhibitor FLUOR-DE-LYS Assay Materials
Recombinant human HDAC8 (catalog number BMIL-SE145-0100) and HDAC10 (catalog number BML-SE559-0050) enzymes, HIDAC substrates BML-KI104 and BML-K1178, and HLDAC developer solutions BMIL-KI105 and BML-K1176 were purchased from Enzo Life Sciences (Farmingdale, N.Y.). Recombinant human HDAC5 and HDAC11 were purchased from BPS Bioscience (San Diego, Calif.)(catalog numbers 50045 and 50021). Substrate Boc-Lys(TFA)-AMC was obtained from Bachem (Bupendorf, Switzerland) (catalog number 1-1985). HDAC inhibitor suberoylanilide hydroxamic acid (SAHA) was obtained from Indofine (Hillsborough Township, N.J.) and trichostatin A (TSA) was obtained from Sigma-Aldrich (St. Louis, Mo.). […] HEPES pH 8.0 was obtained from Boston BioProducts (Ashland, Mass.), Tween-20 from Fisher Scientific (Hampton, N.H.) (catalog number BP337), TCEP from Calbiochem and 7.5% bovine serum albumin (BSA) from Life Technologies (Carlsbad, Calif.) (catalog number 15260037). 384-well, black assay plates were obtained from Corning (Corning, N.Y.) (catalog number 3575).
The histone deacetylase activities of HDAC1, HDAC2, HDAC3, HDAC6, and HDAC8 were measured in modified Fluor-de-Lys assays in 384-well format. In this assay, HDAC enzymes are initially incubated with an ε-acetyl (or -trifluoroacetyl)-L-lysine-containing substrate with a C-terminal amide having aminomethylcoumarin as the amine component. HDACs cleave the ε-acetyl group, rendering the resulting product susceptible to AMC cleavage by trypsin. The released AMC is then detected by its fluorescence.
The HDAC 1, 2 assays employed buffer A, which contained 20 mM HEPES, pH 8.0, 1 mM MgCl2, 137 mM NaCl, 2.7 mM KCl, 0.05% BSA. The HDAC3/SMRT assay employed buffer B, consisting of 20 mM HEPES, pH 8.0, 1 mM MgCl2, 50 mM NaCl, 2.7 mM KCl, 0.05% BSA, 0.005% Tween 20, and 10 μM IP4. The HDAC6 assay employed buffer C, consisting of 20 mM HEPES, pH 8.0, 1 mM MgCl2, 137 mM NaCl, 2.7 mM KCl, 0.5 mM TCEP (Calbiochem) and 0.05% BSA. The HDAC8 assay employed buffer D, consisting of 20 mM HEPES, pH 8.0, 1 mM MgCl2, 100 mM NaCl, 20 mM KCl, 0.1% n-octyl-β-D-glucoside (Anatrace, Maumee, Ohio) and 0.05% BSA. All steps were performed at room temperature (23° C.). The assay was performed by pre-incubating serial dilutions of test compounds with the target HDAC prior to initiation with substrate. Each compound was titrated in a 10-point dose response, using a 1:3 fold dilution scheme, with 0.15 ul of solution added by ECHO555 to the plate, followed by the addition of 20 μl of the appropriate HDAC isoform diluted in appropriate assay buffer. […] Final conditions used for each assay were: 1. HDAC 1, 0.3 nM total enzyme, 20 μM substrate BML-KI104; 2. HDAC 2, 1.5 nM total enzyme, 40 μM substrate BML-KI104; 3. HDAC 3/SMRT, 0.3 nM total enzyme, 20 μM substrate BML-KI104; 4. HDAC 6, 1.3 nM total enzyme, 2.5 μM substrate BML-KI104; 5. HDAC 8, 1.3 nM total enzyme, 200 μM substrate BML-KI178; the final high dose of test compound was 30 μM. For potent compounds, 900 nM was used as the final high dose. The reactions were stopped and developed by addition of 30 ul of HDAC developer solution containing a saturating level of HDAC inhibitor as follows: 1.

Row | Compound | IC50 (1.3 nM enzyme) [nM] | IC50 ([…] enzyme) [nM]
1 | CCC(=O)CCCCC[C@H](NC(=O)[C@H]1CC12CCN(CC)CC2)c1[nH]c2nc1C(=O)NCCC/C=C/c1cccc-2c1 [Compound 15, (1S)-6-ethyl-N-{(1S)-7-oxo-1-[(11E)-6-oxo-3,7,18-triazatricyclo[11.3.1.1~2,5~]octadeca-1(17),2(18),4,11,13,15-hexaen-4-yl]nonyl}-6-azaspiro[2.5]octane-1-carboxamide] | > 900 | –
2 | CCC(=O)CCCCC[C@@H]1NC(=O)[C@H]2CC23CCN(CCCOCCCn2ccc4cc(ccc4c2=O)-c2cnc1[nH]2)CC3 [Compound 12, (3S,6S)-6-(6-oxooctyl)-22-oxa-5,8,18,26,33-pentaazahexacyclo[24.2.2.1˜7,10˜0.1˜11,15˜0.1˜14,18˜0.0˜1,3˜]tritriaconta-7,9,11(32),12,14,16-hexaene-4,31-dione] | – | 808
3 | (11S,4S)-4-(6-oxooctyl)-61,62-dihydro-3-aza-5(2,5)-oxazola-6(6,1)-quinolina-12(4,1)-piperidina-1(1,2)-cyclopropanadodecaphane-62,2-dione [Compound 8] | – | > 900
4 | CCC(=O)CCCCC[C@H](NC(=O)[C@H]1CC12CCN(CC)CC2)c1[nH]c2nc1C(=O)NCCC/C=C\c1cccc-2c1 [Compound 14, (1S)-6-ethyl-N-{(1S)-7-oxo-1-[(11Z)-6-oxo-3,7,18-triazatricyclo[11.3.1.1~2,5~]octadeca-1(17),2(18),4,11,13,15-hexaen-4-yl]nonyl}-6-azaspiro[2.5]octane-1-carboxamide] | > 900 | –
5 | CCC(=O)CCCCCC1NC(=O)C2CC2N2CCC(CCCCCn3c(=O)ccc4cc(ccc43)-c3cnc1o3)CC2 [Compound 7, (11S,4S)-4-(6-oxooctyl)-61,62-dihydro-3-aza-5(2,5)-oxazola-6(6,1)-quinolina-12(4,1)-piperidina-1(1,2)-cyclopropanadodecaphane-62,2-dione] | – | > 900

Source: patent publication US11976069B2, “Inhibitors of histone deacetylase useful for the treatment or prevention of HIV infection” (Merck Sharp & Dohme LLC, priority 2019, dated 2024)
